Consider 32 compounds from US10947241B2, “Phenyl phthalazine derivative, method for the preparation thereof, and pharmaceutical composition comprising the same” (Seoul National University Hospital, priority 2016, dated 2021).

The experiment has as its target hResistin (Homo sapiens (Human), UniProt Q9HD89). As to the kind of experiment: Evaluation of the ability to inhibit TNF-α secretion by hResistin (THP-1 cells, ELISA). It is filed as cell-based. The following applies: for inhibition at 5 µM: inhibition of TNF-α secretion by hResistin in THP-1 cells; for IC50: THP-1 human monocyte cell line, human recombinant Resistin. The method, then:
Experimental Example: Evaluation of the Ability to Inhibit TNF-α Secretion by hResistin
Using THP-1 (human monocyte) cell line and ELISA system, the abilities to inhibit TNF-α secretion by hResistin (IC50) were evaluated for the compounds prepared in the above examples. The compounds target hResistin, and the abilities of the compounds to inhibit TNF-α secretion by human recombinant Resistin in human monocyte (THP-1) were evaluated. The abilities to inhibit TNF-α secretion were assessed by ELISA quantifying the amount of antibody with the enzyme as a marker using an antigen-antibody reaction.
Specifically, the cultured cells were spun down at 1,500 rpm for 2 minutes, the supernatant was removed and then the cells were re-suspended in 10 mL of complete RPMI-1640 medium. After counting the number of cells using Luna™ Automated Cell Counter, cells were plated into 96-well assay plates at 50 μL per well. The cells cultured for 24 hours were treated with the test substances in accordance with the concentration for 1 hour, and then the supernatant was collected and subjected to ELISA assay. In the ELISA assay, the absorbance at 450 nm (OD450 nm) was measured using Flexstation 3. The ability of each test substance to inhibit TNF-α secretion (IC50) and its inhibition at a concentration of 5 uM are shown in Table 1 below.

Where a name gives a salt, the structure may show the parent alone.

Chain of hResistin (Q9HD89 19-108): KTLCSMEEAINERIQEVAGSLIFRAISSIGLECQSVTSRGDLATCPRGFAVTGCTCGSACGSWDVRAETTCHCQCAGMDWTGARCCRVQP

As to `OCCC1CCN(c2nnc(-c3ccc(Cl)cc3)c3ccccc23)CC1` [Example 4, 2-(1-(4-(4-chlorophenyl)phthalazin-1-yl)piperidin-4-yl)ethanol], testing at 5 µM gave an inhibition of 40.4% and the IC50 was 1600 nM. In turn, `C[C@H]1CN(c2nnc(-c3ccc(Cl)cc3)c3ccccc23)CCN1C(=O)C(C)(C)N` [Example 72, (S)-2-amino-1-(4-(4-(4-chlorophenyl)phthalazin-1-yl)-2-methylpiperazin-1-yl)-2-methylpropan-1-one hydrochloride] gave an inhibition at 5 µM of 72.2%. Same read-out and setting: with `O=C([C@@H]1CCCN1)N1CCN(c2nnc(-c3ccc(Cl)cc3)c3ccccc23)CC1` [Example 59, (S)-(4-(4-(4-chlorophenyl)phthalazin-1-yl)piperazin-1-yl)(pyrrolidin-2-yl)methanone hydrochloride] the figure was 60.3%; with `CC(C)(N)C(=O)N1CCN(c2nnc(Oc3ccc(Cl)cc3)c3ccccc23)CC1` [Example 94, 2-amino-1-(4-(4-(4-chlorophenoxy)phthalazin-1-yl)piperazin-1-yl)-2-methylpropan-1-one hydrochloride], 29.9%. Same read-out and setting: with `CC(C)(N)C(=O)N1CCN(c2nnc(-c3ccc(CCC(=O)O)cc3)c3ccccc23)CC1` [Example 104, 3-(4-(4-(4-(2-amino-2-methylpropanoyl)piperazin-1-yl)phthalazin-1-yl)phenyl)propanoic acid hydrochloride] the figure was 0.6%.

In the case of `O=S(=O)(C1CCCC1)N1CCN(c2nnc(-c3ccc(Cl)cc3)c3ccccc23)CC1` [Example 34, 1-(4-chlorophenyl)-4-(4-(cyclopentylsulfonyl)piperazin-1-yl)phthalazine], testing at 5 µM gave an inhibition of 64.9% and the IC50 is 3000 nM. Regarding `O=C([C@H]1CCCN1)N1CCN(c2nnc(-c3ccc(Cl)cc3)c3ccccc23)CC1` [Example 51, (R)-(4-(4-(4-chlorophenyl)phthalazin-1-yl)piperazin-1-yl)(pyrrolidin-2-yl)methanone hydrochloride], the inhibition at 5 µM was found to be 88.2% and the IC50 came out at 800 nM.

In the case of `Clc1ccc(-c2nnc(N3CC4CCNC4C3)c3ccccc23)cc1` (stereo not shown) [Example 88, 1-(4-chlorophenyl)-4-(hexahydropyrrolo[3,4-b]pyrrol-5(1H)-yl)phthalazine hydrochloride], the IC50 amounted to 900 nM. In the case of `CC(C)(N)C(=O)N1CC=C(c2nnc(-c3ccc(Cl)cc3)c3ccccc23)CC1` [Example 44, 2-amino-1-(4-(4-(4-chlorophenyl)phthalazin-1-yl)-5,6-dihydropyridin-1(2H)-yl)-2-methylpropan-1-one hydrochloride], the inhibition at 5 µM amounted to 50.5%.

Take `CC(=O)NC1CCN(c2nnc(-c3ccc(Cl)cc3)c3ccccc23)C1` (stereo not shown) [Example 45, N-(1-(4-(4-chlorophenyl)phthalazin-1-yl)pyrrolidin-3-yl)acetamide]: the inhibition at 5 µM stood at 77.6% and the IC50 was 1600 nM. For `C[C@@H](N)C(=O)N1CCN(c2nnc(-c3ccc(Cl)cc3)c3ccccc23)CC1` [Example 36, (R)-2-amino-1-(4-(4-(4-chlorophenyl)phthalazin-1-yl)piperazin-1-yl)propan-1-one hydrochloride], in that order: 75.8% and 2500 nM. On the same counts, the results for `NC1(C(=O)N2CCN(c3nnc(-c4ccc(Cl)cc4)c4ccccc34)CC2)CCCC1` [Example 58, (1-aminocyclopentyl)(4-(4-(4-chlorophenyl)phthalazin-1-yl)piperazin-1-yl)methanone hydrochloride] are 77.3% and 2900 nM. The compound `CC(C)(N)C(=O)N1CCN(c2nnc(-c3ccc(C(F)(F)F)cc3)c3ccccc23)CC1` [Example 102, 2-amino-2-methyl-1-(4-(4-(4-(trifluoromethyl)phenyl)phthalazin-1-yl)piperazin-1-yl)propan-1-one hydrochloride] yielded an inhibition at 5 µM of 37%. For `O=C(C1CCCCN1)N1CCN(c2nnc(-c3ccc(Cl)cc3)c3ccccc23)CC1` (stereo not shown) [Example 78, (4-(4-(4-chlorophenyl)phthalazin-1-yl)piperazin-1-yl)(piperidin-2-yl)methanone hydrochloride], testing at 5 µM gave an inhibition of 81.3%. For `CC(C)[C@H](N)C(=O)N1CCN(c2nnc(-c3ccc(Cl)cc3)c3ccccc23)C[C@H]1C` [Example 71, (S)-2-amino-1-((R)-4-(4-(4-chlorophenyl)phthalazin-1-yl)-2-methylpiperazin-1-yl)-3-methylbutan-1-one hydrochloride], 5 µM produced 42.2% inhibition. Turning to `CCNC1CCN(c2nnc(-c3ccc(Cl)cc3)c3ccccc23)C1` (stereo not shown) [Example 54, 1-(4-(4-chlorophenyl)phthalazin-1-yl)-N-ethylpyrrolidin-3-amine hydrochloride], the inhibition at 5 µM stood at 70% and the IC50 stood at 1900 nM.

On to `CC(C)(N)C(=O)N1CCN(c2nnc(-c3ccc(Cl)cc3)c3ccccc23)CC1` [Example 43, 2-amino-1-(4-(4-(4-chlorophenyl)phthalazin-1-yl)piperazin-1-yl)-2-methyl propan-1-one hydrochloride], for which the inhibition at 5 µM is 84.4% and the IC50 was 1300 nM. The compound `N[C@H](C(=O)N1CCN(c2nnc(-c3ccc(Cl)cc3)c3ccccc23)CC1)c1ccccc1` [Example 80, (S)-2-amino-1-(4-(4-(4-chlorophenyl)phthalazin-1-yl)piperazin-1-yl)-2-phenylethanone hydrochloride] showed an inhibition at 5 µM of 69.9%. For `Clc1ccc(-c2nnc(N3CCC4CCNC4C3)c3ccccc23)cc1` (stereo not shown) [Example 87, 1-(4-chlorophenyl)-4-(tetrahydro-1H-pyrrolo[2,3-c]pyridin-6(2H,7H,7aH)-yl)phthalazine hydrochloride], the IC50 stood at 1700 nM. `Clc1ccc(-c2nnc(N3CCN(CC4CC4)CC3)c3ccccc23)cc1` [Example 50, 1-(4-chlorophenyl)-4-(4-(cyclopropylmethyl)piperazin-1-yl)phthalazine] had an inhibition at 5 µM of 54%. `CC(C)(C)C(N)C(=O)N1CCN(c2nnc(-c3ccc(Cl)cc3)c3ccccc23)CC1` (stereo not shown) [Example 77, 2-amino-1-(4-(4-(4-chlorophenyl)phthalazin-1-yl)piperazin-1-yl)-3,3-dimethylbutan-1-one hydrochloride]: the inhibition at 5 µM came out at 46.7%. Still for that read-out and setting: with `CNCCN(C)c1nnc(-c2ccc(Cl)cc2)c2ccccc12` [Example 53, N1-(4-(4-chlorophenyl)phthalazin-1-yl)-N1,N2-dimethylethane-1,2-diamine] the figure was 8.7%. In turn, `CNCCCN(C)c1nnc(-c2ccc(Cl)cc2)c2ccccc12` [Example 55, N1-(4-(4-chlorophenyl)phthalazin-1-yl)-N1,N3-dimethylpropane-1,3-diamine hydrochloride] registered an inhibition at 5 µM of 13.1%. The same measure, in the same setting: in the case of `CC(C)[C@H](N)C(=O)N1CCC(c2nnc(-c3ccc(Cl)cc3)c3ccccc23)CC1` [Example 61, (S)-2-amino-1-(4-(4-(4-chlorophenyl)phthalazin-1-yl)piperidin-1-yl)-3-methylbutan-1-one hydrochloride] it was 21.2%.

On to `CC(C)[C@H](N)C(=O)N1CCN(c2nnc(-c3ccc(Cl)cc3)c3ccccc23)C[C@@H]1C` [Example 73, (S)-2-amino-1-((S)-4-(4-(4-chlorophenyl)phthalazin-1-yl)-2-methylpiperazin-1-yl)-3-methylbutan-1-one hydrochloride], for which testing at 5 µM gave an inhibition of 53.6%. Same read-out and setting: in the case of `NC(=O)CCC(N)C(=O)N1CCN(c2nnc(-c3ccc(Cl)cc3)c3ccccc23)CC1` (stereo not shown) [Example 84, 4-amino-5-(4-(4-(4-chlorophenyl)phthalazin-1-yl)piperazin-1-yl)-5-oxopentanamide hydrochloride] it was 12.6%; in that of `Clc1ccc(-c2nnc(N3CCCN(Cc4ccccc4)CC3)c3ccccc23)cc1` [Example 67, 1-(4-benzyl-1,4-diazepan-1-yl)-4-(4-chlorophenyl)phthalazine], 38.9%; in that of `O=S(=O)(C1CC1)N1CCN(c2nnc(-c3ccc(Cl)cc3)c3ccccc23)CC1` [Example 37, 1-(4-chlorophenyl)-4-(4-(cyclopropylsulfonyl)piperazin-1-yl)phthalazine], 52.9%. Regarding `N[C@@H](COCc1ccccc1)C(=O)N1CCN(c2nnc(-c3ccc(Cl)cc3)c3ccccc23)CC1` [Example 79, (S)-2-amino-3-(benzyloxy)-1-(4-(4-(4-chlorophenyl)phthalazin-1-yl)piperazin-1-yl)propan-1-one hydrochloride], the inhibition at 5 µM came to 65.4%. For the compound `CCOC(=O)CN1CCN(c2nnc(-c3ccc(Cl)cc3)c3ccccc23)CC1` [Example 65, ethyl 2-(4-(4-(4-chlorophenyl)phthalazin-1-yl)piperazin-1-yl)acetate], at 5 µM the inhibition was 2.4%. On the same count and under the same terms, in the case of `C[C@H]1CN(C(=O)C(C)(C)N)CCN1c1nnc(-c2ccc(Cl)cc2)c2ccccc12` [Example 74, (S)-2-amino-1-(4-(4-(4-chlorophenyl)phthalazin-1-yl)-3-methylpiperazin-1-yl)-2-methylpropan-1-one hydrochloride] it was 38.7%. Still for that read-out and setting: in the case of `O=C1CN[C@H](C(=O)N2CCN(c3nnc(-c4ccc(Cl)cc4)c4ccccc34)CC2)CN1` [Example 81, (S)-5-(4-(4-(4-chlorophenyl)phthalazin-1-yl)piperazine-1-carbonyl)piperazin-2-one hydrochloride] it was 48.1%.

By inhibition is commonly meant the drop in the measured response relative to a control, in per cent. Lower therefore signals a weak effect. The IC50 is the point on the concentration scale where inhibition reaches its midpoint.
